Results published in patent US11716944B1, “Method for improving one-time seedling rate of microspore embryoids of brassica campestris SSP. chinensis makino” (Anhui Agricultural University, priority 2021, dated 2023).

Columns and labels:
[1] = system: Brassica campestris ssp. Chinensis Makino; assay: Effects of different concentrations of 6-BA sprayed onto flower buds on the embryogenesis rate; format: in vivo; conditions: for embryogenesis rate increased by: compared with no 6-BA
Experimental: In this example, a method for improving a one-time seedling rate of microspore embryoids of Brassica campestris ssp. Chinensis Makino included the steps of: • (1) pretreatment of flower bud • a concentration of 100 mg/L of 6-BA was sprayed onto a flower bud of a plant of Brassica campestris ssp. Chinensis Makino at a full-bloom stage after squaring; on the second day after the spraying of 6-BA, an inflorescence, which was specifically a main inflorescence or a healthy inflorescence of a primary branch of a plant without insect pests and cracked buds, was selected, placed in a self-sealing bag and sprayed with clean water, and then stored in a refrigerator at 4° C. for 1 day for later use; • (2) isolation of microspores • a flower bud with a petal length/anther length between 0.5-1 was selected, firstly sterilized with 70% alcohol for 30 s, then sterilized with 0.1% HgCl2 under shaking for 6 min, and then rinsed with sterilized water for 2 times, with each time for 5 min; then, the flower bud was crushed in a B5 medium with a glass rod to release microspores, and the microspores were filtered by a 300-mesh steel-wire mesh screen and a cell mesh screen successively; subsequently, a filtrate was collected into a centrifugal tube and centrifuged under the condition of 1,000 r/min for 3 min; and after the centrifuging, a pellet was resuspended with a B5 medium, and the resuspended solution was centrifuged again under the condition of 1,000 r/min for 3 min to obtain a pellet as the purified microspores desired for the objective; • (3) culture of microspores • the purified microspores were diluted with a NLN medium, and a cell density was adjusted to about 1.5 × 10^5 /mL^-1 (at this time, the medium was pale yellow); subsequently, the diluted purified microspores were subpackaged into culture dishes, and added with phytic acid PA at a concentration of 0.15%; and finally, the microspores were subjected to heat shock treatment at 33° C. for 24 h, then transferred to culture in the dark at 25° C., and placed onto a shaker for shaking culture after embryoids visible to naked eyes appeared; and • (4) germination and seedling of embryoids • the cultured embryoids in a cotyledon stage with a length of 2.8 mm were transferred onto a MS medium for differentiation culture, wherein culture conditions were 4° C., 14 h of illumination by blue-red compound light/day, and 14 days of culture; and then, the culture was continued under a condition of 25° C. and 14 h of illumination by blue-red compound light/day until seedling; wherein the ratio of blue light to red light in the blue-red compound light was 1:1. This example was used for verifying the effects of different concentrations of 6-BA on the embryogenesis rate of Brassica campestris ssp. Chinensis Makino: Method: in the pretreatment process of the flower buds, after squaring of Brassica campestris ssp. Chinensis Makino, at the full flowering stage, 6-BA solutions with concentrations of 0, 50, 100, 150 and 200 mg/L were prepared and sprayed onto the flower buds respectively, so as to study the effects of different concentrations of 6-BA on the embryogenesis rate of Brassica campestris ssp. Chinensis Makino (other steps were the same, and were conducted with reference to Example 3).

[2] = system: purified microspores of Brassica campestris ssp. Chinensis Makino; assay: Effects of different concentrations of phytic acid PA added in microspore culture on the embryogenesis rate; format: cell-based
Experimental: In this example, a method for improving a one-time seedling rate of microspore embryoids of Brassica campestris ssp. Chinensis Makino included the steps of: • (1) pretreatment of flower bud • a concentration of 100 mg/L of 6-BA was sprayed onto a flower bud of a plant of Brassica campestris ssp. Chinensis Makino at a full-bloom stage after squaring; on the second day after the spraying of 6-BA, an inflorescence, which was specifically a main inflorescence or a healthy inflorescence of a primary branch of a plant without insect pests and cracked buds, was selected, placed in a self-sealing bag and sprayed with clean water, and then stored in a refrigerator at 4° C. for 1 day for later use; • (2) isolation of microspores • a flower bud with a petal length/anther length between 0.5-1 was selected, firstly sterilized with 70% alcohol for 30 s, then sterilized with 0.1% HgCl2 under shaking for 6 min, and then rinsed with sterilized water for 2 times, with each time for 5 min; then, the flower bud was crushed in a B5 medium with a glass rod to release microspores, and the microspores were filtered by a 300-mesh steel-wire mesh screen and a cell mesh screen successively; subsequently, a filtrate was collected into a centrifugal tube and centrifuged under the condition of 1,000 r/min for 3 min; and after the centrifuging, a pellet was resuspended with a B5 medium, and the resuspended solution was centrifuged again under the condition of 1,000 r/min for 3 min to obtain a pellet as the purified microspores desired for the objective; • (3) culture of microspores • the purified microspores were diluted with a NLN medium, and a cell density was adjusted to about 1.5 × 10^5 /mL^-1 (at this time, the medium was pale yellow); subsequently, the diluted purified microspores were subpackaged into culture dishes, and added with phytic acid PA at a concentration of 0.15%; and finally, the microspores were subjected to heat shock treatment at 33° C. for 24 h, then transferred to culture in the dark at 25° C., and placed onto a shaker for shaking culture after embryoids visible to naked eyes appeared; and • (4) germination and seedling of embryoids • the cultured embryoids in a cotyledon stage with a length of 2.8 mm were transferred onto a MS medium for differentiation culture, wherein culture conditions were 4° C., 14 h of illumination by blue-red compound light/day, and 14 days of culture; and then, the culture was continued under a condition of 25° C. and 14 h of illumination by blue-red compound light/day until seedling; wherein the ratio of blue light to red light in the blue-red compound light was 1:1. This example was used for verifying the effects of different concentrations of phytic acid PA on the embryogenesis rate of Brassica campestris ssp. Chinensis Makino: Method: in the process of microspore culture, the purified microspores subjected to density dilution were subpackaged into culture dishes, and added with phytic acid PA at concentrations of 0, 0.01%, 0.1%, 0.15%, 0.5% and 1% respectively, so as to study the effects of different concentrations of phytic acid PA on the embryogenesis rate of Brassica campestris ssp. Chinensis Makino (other steps were the same, and conducted with reference to Example 3).

SMILES | Average embryogenesis rate ([1]; 6-BA 50 mg/L sprayed onto flower buds) [embryo/bud] | embryogenesis rate increased by ([1]; 6-BA 50 mg/L) [%] | Average embryogenesis rate ([1]; 6-BA 100 mg/L sprayed onto flower buds) [embryo/bud] | embryogenesis rate increased by ([1]; 6-BA 100 mg/L) [%] | Average embryogenesis rate ([1]; 6-BA 150 mg/L sprayed onto flower buds) [embryo/bud] | embryogenesis rate increased by ([1]; 6-BA 150 mg/L) [%] | Average embryogenesis rate ([1]; 6-BA 200 mg/L sprayed onto flower buds) [embryo/bud] | embryogenesis rate decreased by ([1]; 6-BA 200 mg/L, compared with that without application of the 6-BA solution) [%] | Average embryogenesis rate ([2]; PA 0.01% in medium) [embryo/bud] | embryogenesis rate increased by ([2]; PA 0.01%, compared with the medium without addition of PA) [%] | Average embryogenesis rate ([2]; PA 0.1% in medium) [embryo/bud] | embryogenesis rate increased by ([2]; PA 0.1%, compared with the medium without addition of PA) [%] | Average embryogenesis rate ([2]; PA 0.15% in medium) [embryo/bud] | embryogenesis rate increased by ([2]; PA 0.15%, compared with the medium without addition of PA) [%] | Average embryogenesis rate ([2]; PA 0.5% in medium) [embryo/bud] | embryogenesis rate increased by ([2]; PA 0.5%, compared with the medium without addition of PA) [%] | Average embryogenesis rate ([2]; PA 1% in medium) [embryo/bud] | embryogenesis rate decreased by ([2]; PA 1%, compared with the medium without addition of PA) [%]
c1ccc(CNc2ncnc3[nH]cnc23)cc1 [6-BA] | 0.92 | 38.46 | 1.56 | 100 | 1.08 | 17.95 | 0.74 | 5.13 |  |  |  |  |  |  |  |  |  | 
O=P(O)(O)O[C@H]1[C@H](OP(=O)(O)O)[C@@H](OP(=O)(O)O)[C@H](OP(=O)(O)O)[C@@H](OP(=O)(O)O)[C@H]1OP(=O)(O)O [PA, Phytic acid] |  |  |  |  |  |  |  |  | 0.774 | 21 | 1.495 | 134 | 1.137 | 78 | 0.789 | 23 | 0.487 | 24
